Strand notation (5' to 3'): a small letter for the sugar, then the base; units joined by * are phosphorothioate-linked, units joined directly phosphodiester-linked; [ ] holds rarer units or linkages, { } end groups; capitals alone tell only the bases. Where a SMILES comes first, the peptide text is derived from it. The star is where a group is joined. e = 2'-O-(2-methoxyethyl) (MOE); [5mC] = 5-methylcytosine; Cbz = O=C(OCc1ccccc1)*; d = 2'-deoxy (DNA); CH2F = FC*
Key:
JNK2 mRNA = assay: Northern assay, JNK2 mRNA expression in A549 cells; type: cell-based, human; conditions: for inhibition of JNK2 mRNA expression: 400 nM, Northern assay, Table 12; for dose- and sequence-dependent response on JNK2 mRNA levels: A549 cells, 50, 100, 200 and 400 nM
Experimental: In order to evaluate the activity of potential JNK-modulating oligonucleotides, human lung carcinoma cell line A549 (American Type Culture Collection, 10801 University Boulevard, Manassas, Va. 20110-2209, No. ATCC CCL-185) cells or other cell lines as indicated in the Examples, were grown and treated with oligonucleotides or control solutions as detailed below. After harvesting, cellular extracts were prepared and examined for specific JNK mRNA levels or JNK protein levels (i.e., Northern or Western assays, respectively). In all cases, “% expression” refers to the amount of JNK-specific signal in an oligonucleotide-treated cell relative to an untreated cell (or a cell treated with a control solution that lacks oligonucleotide), and “% inhibition” is calculated as
100%−%Expression=%Inhibition.
The mRNA expression of each JNK protein was determined by using a nucleic acid probe specifically hybridizable thereto. Nucleic acid probes specific for JNK1, JNK2 and JNK3 are described in Examples 3, 4 and 5, respectively. The probes were radiolabelled by means well known in the art (see, e.g., Short Protocols in Molecular Biology, 2nd Ed., Ausubel et al., Eds., John Wiley & Sons, New York, 1992, pages 3-11 to 2-3-44 and 4-17 to 4-18; Ruth, Chapter 6 In: Methods in Molecular Biology, Vol. 26: Protocols for Oligonucleotide Conjugates, Agrawal, ed., Humana Press Inc., Totowa, N.J., 1994, pages 167-185; and Chapter 10 In: Molecular Cloning: A Laboratory Manual, 2nd Ed., Sambrook et al., Eds., pages 10.1-10.70). The blots were stripped and reprobed with a ^32P-labeled glyceraldehyde 3-phosphate dehydrogenase (G3PDH) probe (Clontech Laboratories, Inc., Palo Alto, Calif.) in order to confirm equal loading of RNA and to allow the levels of JNK transcripts to be normalized with regard to the G3PDH signals.
A549 cells were grown in T-75 flasks until 80-90% confluent. At this time, the cells were washed twice with 10 mL of media (DMEM), followed by the addition of 5 mL of DMEM containing 20 μg/mL of LIPOFECTIN™ (i.e., 1:1 (w/w) DOTMA/DOPE, Life Technologies, Gaithersburg, Md.; DOTMA=N-[1-(2,3-dioleyoxy)propyl]-N,N,N-trimethylammonium chloride; DOPE=dioleoyl phosphatidylethanolamine). The oligonucleotides were added from a 10 μM stock solution to a final concentration of 400 nM, and the two solutions were mixed by swirling the flasks. As a control, cells were treated with LIPOFECTIN™ without oligonucleotide under the same conditions and for the same times as the oligonucleotide-treated samples. After 4 hours at 37° C., the medium was replaced with fresh DMEM containing 10% serum. The cells were allowed to recover for 18 hours. Total cellular RNA was then extracted in guanidinium, subject to gel electrophoresis and transferred to a filter according to techniques known in the art (see, e.g., Chapter 7 In: Molecular Cloning: A Laboratory Manual, 2nd Ed., Sambrook et al., Eds., pages 7.1-7.87, and Short Protocols in Molecular Biology, 2nd Ed., Ausubel et al., Eds., John Wiley & Sons, New York, 1992, pages 2-24 to 2-30 and 4-14 to 4-29). Filters were typically hybridized overnight to a probe specific for the particular JNK gene of interest in hybridization buffer (25 mM KPO4, pH 7.4; 5×SSC; 5× Denhardt's solution, 100 μg/ml Salmon sperm DNA and 50% formamide) (Alahari et al., Nucl. Acids Res., 1993, 21, 4079). This was followed by two washes with 1×SSC, 0.1% SDS and two washes with 0.25×SSC, 0.1% SDS. Hybridizing bands were visualized by exposure to X-OMAT AR film and quantitated using a PHOSPHORIMAGER™ essentially according to the manufacturer's instructions (Molecular Dynamics, Sunnyvale, Calif.).
In initial screenings of a set of oligonucleotides derived from the JNK2 sequence (Table 9) for biological activity, a cDNA clone of JNK2 (Kallunki et al., Genes & Development, 1994, 8, 2996) was radiolabeled and used as a JNK2-specific probe in Northern blots. […]

MDA-MB-231 tumors = assay: MDA-MB-231 human tumor xenograft in nude mice; type: in vivo; conditions: MDA-MB-231 tumors, 25 mg/kg intravenous once daily
Text: Approximately 5×10^6 breast adenocarcinoma cells (cell line MDA-MB-231; American Type Culture Collection, 10801 University Boulevard, Manassas, Va. 20110-2209, No. ATCC HTB-26) were implanted subcutaneously in the right inner thigh of nude mice (n=6 for each of three sets of mice). Oligonucleotides ISIS 15346 (JNK1, SEQ ID NO:16) and 15353 (JNK2, SEQ ID NO:31) were suspended in saline and administered once daily to two sets of mice on the first day the tumor volume was about 100 mm^3. A saline-only (0.9% NaCl) solution was given to a third set of animals as a control. Oligonucleotides were given by intravenous injection at a dosage of 25 mg/kg. Tumor size was measured and tumor volume was calculated on days 12, 19, 26 and 33 following tumor cell inoculation.

rat JNK2 mRNA = assay: Northern assay, rat JNK2 (p54a) mRNA in A10 cells; type: cell-based; conditions: rat JNK1 and JNK2 mRNA, A10 cells
Experimental: (§1) In order to study the role of JNK proteins in animal models, oligonucleotides targeted to the genes encoding JNK1, JNK2 and JNK3 of Rattus norvegicus were prepared. These oligonucleotides are 2′-methoxyethoxy, phosphodiester/2′-hydroxyl, phosphorothioate/2′-methoxyethoxy, phosphodiester “gapmers” in which every cytosine residue is 5-methylcytosine (msc). These antisense compounds were synthesized according to the methods of the disclosure. Certain of these oligonucleotides are additionally specifically hybridizable to JNK genes from other species as indicated herein. The oligonucleotides described in this Example were tested for their ability to modulate rat JNK mRNA levels essentially according to the methods described in the preceding Examples, with the exceptions that the cell line used was rat A10 aortic smooth muscle cells (ATCC No. ATCC CRL-1476) and the probes used were specific for rat JNK1, JNK2 or JNK3 (see infra). A10 cells were grown and treated with oligonucleotides essentially as described by (Cioffi et al. Mol. Pharmacol., 1997, 51, 383).
(§2) These antisense compounds were tested for their ability to modulate levels of p54? (JNK1) and p54a (JNK2) mRNA in A10 cells via Northern assays. Due to the high degree of sequence identity between the human and rat genes, radiolabeled human JNK1 (Example 3) and JNK2 (Example 4) cDNAs functioned as specific probes for the rat homologs.
These antisense compounds were tested for their ability to modulate levels of p54a (JNK2) mRNA in A10 cells using the radiolabeled human JNK2 cDNA as a probe as described supra. Oligonucleotides showing levels of inhibition from≧about 60% to about 100% of rat JNK2 mRNA levels include ISIS Nos. 18254, 18255, 18257, 18258, 18259, 18260 and 18265 (SEQ ID NOS:125, 126, 128, 129, 130, 131 and 136, respectively). These oligonucleotides are preferred embodiments of the invention for modulating rat JNK2 expression. […] These oligonucleotides are thus more preferred embodiments of the invention for modulating rat JNK2 expression. ISIS 18259 (SEQ ID NO:130) was chosen for use in further studies (infra).
(§3) A dose response study was conducted using oligonucleotides targeted to rat JNK1 (ISIS 21859; SEQ ID NO:113) and JNK2 (ISIS 18259; SEQ ID NO:130) and Northern assays.

rat JNK1 mRNA = assay: Northern assay, rat JNK1 (p54?) mRNA in A10 cells; type: cell-based; conditions: Table 20
Experimental: as §1, §2, §3

HUVEC = assay: Apoptosis in HUVEC, percent hypodiploid cells by flow cytometry; type: cell-based, human; conditions: HUVEC treated with JNK2 oligonucleotide plus the agent
JNK1 mRNA = assay: Northern assay, JNK1 mRNA expression in A549 cells; type: cell-based, human

With “12567 (antisense dG*dG*dT*dC*dC*dC*dG*dT*dC*dG*dA*dG*dG*dC*dA*dT*dC*dA*dA*dG) [compound 12567]” as the compound, how does the “% EXPRESSION” value (JNK2 mRNA; JNK2 mRNA, A549 cells, 400 nM oligonucleotide, relative to control) read?
Its value is 18%.

Which “tumor growth compared to the saline control” value (MDA-MB-231 tumors) does the source give for “15353 (antisense eG*eT*e[5mC]*e[5mC]*eG*dG*dG*dC*dC*dA*dG*dG*dC*dC*eA*eA*eA*eG*eT*e[5mC]) [compound 15353]” here?
The value was “inhibited tumor growth compared to the saline control”.

And the “inhibition of JNK2 mRNA expression” value (JNK2 mRNA)?
The value was “approximately 80%”.

Which “inhibition of JNK2 mRNA expression” value (JNK2 mRNA) does the source give for “15354 (antisense eGeTe[5mC]e[5mC]eG*dG*dG*dC*dC*dA*dG*dG*dC*dC*eAeAeAeGeTe[5mC]) [compound 15354]” here?
Its value is “approximately 80%”.

Which results are given for “21861 (antisense CGGTAGGCTCGCTTAGCATG; 2'-O-methyl wings, phosphorothioate gap, chemistry not fully specified) [compound 21861]”?
capacity to modulate both JNK1 and JNK2 (Pan JNK) (rat JNK2 mRNA): demonstrated a capacity to modulate both JNK1 and JNK2; inhibition of rat JNK1 mRNA levels (rat JNK1 mRNA): at least 90%

Which “capacity to modulate both JNK1 and JNK2 (Pan JNK)” value (rat JNK2 mRNA) does the source give for “21867 (antisense AGCTTCGTCTACGGAGATCC; 2'-O-methyl wings, phosphorothioate gap, chemistry not fully specified) [compound 21867]” here?
The value was “demonstrated a capacity to modulate both JNK1 and JNK2”.

And the “inhibition of rat JNK1 mRNA levels” value (rat JNK1 mRNA)?
The value was “at least 90%”.

How did the “effect on JNK2 oligonucleotide-induced cell death (apoptosis)” value (HUVEC) turn out when `C[C@@H]1C[C@@H]([C@H](O)CC2CC(=O)NC(=O)C2)C(=O)[C@@H](C)C1` [cyclohexamide] was run?
The value was “had no effect on apoptosis”.

For `COC(=O)C[C@H](NC(=O)[C@H](C)NC(=O)[C@@H](NC(=O)OCc1ccccc1)C(C)C)C(=O)CF` [z-FAD.fmk, z-VAD.fmk] (Cbz-Val-Ala-Asp(OMe)-CH2F), which “effect on JNK2 oligonucleotide-induced cell death (apoptosis)” value (HUVEC) is on record?
The value was “decreased”.

Which “dose- and sequence-dependent response on JNK1 mRNA levels” value (JNK1 mRNA; A549 cells, 50, 100, 200 and 400 nM) does the source give for “CTC-TCT-GTA-GGC-CCG-CTT-GG (antisense dC*dT*dC*dT*dC*dT*dG*dT*dA*dG*dG*dC*dC*dC*dG*dC*dT*dT*dG*dG) [ISIS 12539, human JNK1 antisense, fully P=S and fully 2′-deoxy]” here?
Its value is “dependent on dose in an approximately linear fashion”.

What about the “% Inhibition” value (JNK1 mRNA; JNK1 mRNA time course, 48 h) of the same compound?
Its value is “greater than or equal to 80%”.

And the “dose- and sequence-dependent response on JNK2 mRNA levels” value (JNK2 mRNA)?
The value was “dependent on dose in an approximately linear fashion”.

With “G^SA^SC^ST^ST^ST^SG^SG^SC^SC^ST^SG^SG^SC^SC^SC^SG^SG^SA^SC (GACTTTGGCCTGGCCCGGAC; DNA, all phosphorothioate, methylation of C not given here) [ISIS 14318, 12560 sense control, 2′-deoxy-phosphorothioate, reference compound]” as the compound, how does the “dose- and sequence-dependent response on JNK2 mRNA levels” value (JNK2 mRNA) read?
The value was “neither of the control oligonucleotides effect any consistent response”.

Which “dose- and sequence-dependent response on JNK2 mRNA levels” value (JNK2 mRNA) does the source give for “G^ST^SG^SC^SG^SC^SG^SC^SG^SA^SG^SC^SC^SC^SG^SA^SA^SA^ST^SC (GTGCGCGCGAGCCCGAAATC; DNA, all phosphorothioate, methylation of C not given here) [ISIS 14319, 12560 scrambled control, 2′-deoxy-phosphorothioate, reference compound]” here?
Its value is “neither of the control oligonucleotides effect any consistent response”.

From patent US6809193B2, “Antisense oligonucleotide compositions and methods for the modulation of JNK proteins” (ISIS Pharmaceuticals, Inc., priority 1997, dated 2004)
